Data reported in PubChem BioAssay (NCI).
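Results reflect a 48-hour exposure of cells in 96-well plates to compound at five concentrations. At the GI50, growth is halved. At the TGI there is no net growth.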

Tests used:
Test in all cases: growth of human tumour cells (NCI), 48 h
CCRF-CEM leukemia = test system: CCRF-CEM leukemia
HCT-15 colon = test system: HCT-15 colon
HOP-92 NSCLC = test system: HOP-92 NSCLC
IGROV1 ovarian = test system: IGROV1 ovarian
MALME-3M melanoma = test system: MALME-3M melanoma
NCI-H522 lung = test system: NCI-H522 lung
NCI/ADR-RES ovarian = test system: NCI/ADR-RES ovarian
OVCAR-8 ovarian = test system: OVCAR-8 ovarian
RXF 393 renal = test system: RXF 393 renal
SF-539 CNS = test system: SF-539 CNS

C/C(=C\c1ccn(-c2ccc(N)cc2)n1)[C@@H]1C[C@@H]2O[C@]2(C)CCC[C@H](C)[C@H](O)[C@@H](C)C(=O)C(C)(C)[C@@H](O)CC(=O)O1
GI50 (CCRF-CEM leukemia): 0.0338 µM
TGI (CCRF-CEM leukemia): > 50 µM
GI50 (HCT-15 colon): 0.0297 µM
TGI (HCT-15 colon): > 50 µM
TGI (HOP-92 NSCLC): > 50 µM
GI50 (IGROV1 ovarian): 0.494 µM
TGI (IGROV1 ovarian): > 50 µM
GI50 (MALME-3M melanoma): 0.125 µM
TGI (MALME-3M melanoma): > 50 µM
GI50 (NCI-H522 lung): 0.0356 µM
TGI (NCI-H522 lung): 0.342 µM
GI50 (NCI/ADR-RES ovarian): 0.106 µM
GI50 (OVCAR-8 ovarian): 0.0481 µM
TGI (OVCAR-8 ovarian): > 50 µM
GI50 (RXF 393 renal): 0.0478 µM
TGI (RXF 393 renal): 0.406 µM
GI50 (SF-539 CNS): 0.0702 µM
TGI (SF-539 CNS): 0.357 µM

CO[C@H](C(=O)N[C@@H](CCCCNC(=O)OCc1ccccc1)C(=O)OC(C)(C)C)[C@@H]1Cc2cc3cc(OC4CC(OC5CC(O)C(O)C(C)O5)C(O)C(C)O4)c(C)c(O)c3c(O)c2C(=O)[C@H]1OC1CC(OC2CC(OC3CC(C)(O)C(O)C(C)O3)C(O)C(C)O2)C(O)C(C)O1 (stereo partly specified)
GI50 (CCRF-CEM leukemia): 0.404 µM
TGI (CCRF-CEM leukemia): 5.07 µM
GI50 (HCT-15 colon): 2.55 µM
TGI (HCT-15 colon): > 10 µM
GI50 (HOP-92 NSCLC): 0.443 µM
TGI (HOP-92 NSCLC): 1.97 µM
GI50 (IGROV1 ovarian): 0.449 µM
TGI (IGROV1 ovarian): > 10 µM
GI50 (MALME-3M melanoma): 0.516 µM
TGI (MALME-3M melanoma): 1.86 µM
GI50 (NCI-H522 lung): 0.687 µM
TGI (NCI-H522 lung): 3.15 µM
TGI (NCI/ADR-RES ovarian): > 10 µM
GI50 (OVCAR-8 ovarian): 0.697 µM
TGI (OVCAR-8 ovarian): > 10 µM
GI50 (RXF 393 renal): 0.705 µM
TGI (RXF 393 renal): 2.02 µM
GI50 (SF-539 CNS): 0.559 µM
TGI (SF-539 CNS): 3.08 µM

Cc1ccc(NC(=O)c2ccnc(N3CCCC3)c2)cc1-c1ccc(C(=O)NCC2CC2)cc1
GI50 (CCRF-CEM leukemia): > 25 µM
TGI (CCRF-CEM leukemia): > 25 µM
GI50 (HCT-15 colon): > 25 µM
TGI (HCT-15 colon): > 25 µM
GI50 (HOP-92 NSCLC): 8.2 µM
TGI (HOP-92 NSCLC): > 25 µM
GI50 (IGROV1 ovarian): > 25 µM
TGI (IGROV1 ovarian): > 25 µM
GI50 (MALME-3M melanoma): > 25 µM
TGI (MALME-3M melanoma): > 25 µM
GI50 (NCI-H522 lung): > 25 µM
TGI (NCI-H522 lung): > 25 µM
GI50 (NCI/ADR-RES ovarian): > 25 µM
TGI (NCI/ADR-RES ovarian): > 25 µM
GI50 (OVCAR-8 ovarian): > 25 µM
TGI (OVCAR-8 ovarian): > 25 µM
TGI (RXF 393 renal): > 25 µM
GI50 (SF-539 CNS): > 25 µM
TGI (SF-539 CNS): > 25 µM

COC(=O)C#Cc1ccc([N+](=O)[O-])cc1
TGI (CCRF-CEM leukemia): 2.27 µM
TGI (HCT-15 colon): 1.6 µM
TGI (HOP-92 NSCLC): 4.11 µM
TGI (IGROV1 ovarian): 3.92 µM
TGI (MALME-3M melanoma): 4.41 µM
TGI (NCI-H522 lung): 3.47 µM
TGI (NCI/ADR-RES ovarian): 21.8 µM
TGI (OVCAR-8 ovarian): 7.25 µM
TGI (RXF 393 renal): 4.11 µM
TGI (SF-539 CNS): 4.08 µM

COc1cnc2c(c1)C(=O)c1c-2n(CCCN2CCN(C)CC2)c(=O)c2cc(Cl)ccc12
GI50 (CCRF-CEM leukemia): 0.527 µM
TGI (CCRF-CEM leukemia): 20.1 µM
GI50 (HCT-15 colon): 4.08 µM
TGI (HCT-15 colon): 27.9 µM
GI50 (HOP-92 NSCLC): 4.68 µM
TGI (HOP-92 NSCLC): 29.8 µM
GI50 (IGROV1 ovarian): 10.4 µM
TGI (IGROV1 ovarian): 87.1 µM
GI50 (MALME-3M melanoma): 5.77 µM
TGI (MALME-3M melanoma): 19.5 µM
GI50 (NCI-H522 lung): 6.32 µM
TGI (NCI-H522 lung): 52.1 µM
GI50 (NCI/ADR-RES ovarian): 0.979 µM
TGI (NCI/ADR-RES ovarian): 24.5 µM
GI50 (OVCAR-8 ovarian): 3.09 µM
TGI (OVCAR-8 ovarian): > 100 µM
GI50 (RXF 393 renal): 1.9 µM
TGI (RXF 393 renal): 13.3 µM
GI50 (SF-539 CNS): 2.15 µM
TGI (SF-539 CNS): 5.31 µM

COc1cc2c(cc1OC)[C@@]1(C)C(=O)c3cc4c(cc3[C@H]1N(C)C2=O)OCO4
GI50 (CCRF-CEM leukemia): 38 µM
TGI (CCRF-CEM leukemia): > 100 µM
GI50 (HCT-15 colon): > 100 µM
TGI (HCT-15 colon): > 100 µM
GI50 (HOP-92 NSCLC): 28.8 µM
TGI (HOP-92 NSCLC): > 100 µM
GI50 (IGROV1 ovarian): 33.9 µM
TGI (IGROV1 ovarian): > 100 µM
GI50 (MALME-3M melanoma): 75.1 µM
TGI (MALME-3M melanoma): > 100 µM
GI50 (NCI-H522 lung): 10.4 µM
TGI (NCI-H522 lung): 85.6 µM
GI50 (NCI/ADR-RES ovarian): 59.6 µM
TGI (NCI/ADR-RES ovarian): > 100 µM
GI50 (OVCAR-8 ovarian): 29.3 µM
TGI (OVCAR-8 ovarian): > 100 µM
GI50 (RXF 393 renal): 26.9 µM
TGI (RXF 393 renal): > 100 µM
GI50 (SF-539 CNS): 24 µM
TGI (SF-539 CNS): 75.7 µM

[N-]=[N+]=CC(=O)OCC(N)C(=O)O (stereo unspecified)
GI50 (CCRF-CEM leukemia): 0.623 µM
TGI (CCRF-CEM leukemia): > 100 µM
GI50 (HCT-15 colon): 0.631 µM
TGI (HCT-15 colon): > 100 µM
GI50 (HOP-92 NSCLC): > 100 µM
TGI (HOP-92 NSCLC): > 100 µM
GI50 (IGROV1 ovarian): 5.47 µM
TGI (IGROV1 ovarian): > 100 µM
GI50 (MALME-3M melanoma): 6.56 µM
TGI (MALME-3M melanoma): > 100 µM
GI50 (NCI-H522 lung): 0.512 µM
TGI (NCI-H522 lung): > 100 µM
GI50 (NCI/ADR-RES ovarian): 3.2 µM
TGI (NCI/ADR-RES ovarian): > 100 µM
GI50 (OVCAR-8 ovarian): 0.923 µM
TGI (OVCAR-8 ovarian): > 100 µM
GI50 (RXF 393 renal): 4.46 µM
TGI (RXF 393 renal): > 100 µM
GI50 (SF-539 CNS): 0.64 µM
TGI (SF-539 CNS): > 100 µM

CN1CCN(Cc2ccc(NC(=O)c3cncc(C#Cc4c(N)ncc5cc(F)ccc45)c3)cc2C(F)(F)F)CC1
GI50 (CCRF-CEM leukemia): 1.04 µM
TGI (CCRF-CEM leukemia): 2.65 µM
GI50 (HCT-15 colon): 0.631 µM
TGI (HCT-15 colon): 1.31 µM
GI50 (HOP-92 NSCLC): 0.2 µM
TGI (HOP-92 NSCLC): 2.03 µM
GI50 (IGROV1 ovarian): 0.813 µM
TGI (IGROV1 ovarian): 3.02 µM
GI50 (MALME-3M melanoma): 0.36 µM
TGI (MALME-3M melanoma): 1.14 µM
GI50 (NCI-H522 lung): 2.01 µM
TGI (NCI-H522 lung): 5.45 µM
GI50 (NCI/ADR-RES ovarian): 1.03 µM
TGI (NCI/ADR-RES ovarian): 2.46 µM
GI50 (OVCAR-8 ovarian): 1.27 µM
TGI (OVCAR-8 ovarian): 3.57 µM
GI50 (RXF 393 renal): 0.836 µM
TGI (RXF 393 renal): 1.57 µM
GI50 (SF-539 CNS): 0.86 µM
TGI (SF-539 CNS): 2.73 µM

COc1cccc2c1c1nc3cc(C)c(C)cc3nc1n2CCN(C)C
GI50 (CCRF-CEM leukemia): 1.81 µM
TGI (CCRF-CEM leukemia): 7.3 µM
GI50 (HCT-15 colon): 1.64 µM
TGI (HCT-15 colon): 11.2 µM
GI50 (HOP-92 NSCLC): 1.13 µM
TGI (HOP-92 NSCLC): 6.73 µM
GI50 (IGROV1 ovarian): 1.76 µM
TGI (IGROV1 ovarian): 10.7 µM
GI50 (MALME-3M melanoma): 1.14 µM
TGI (MALME-3M melanoma): 2.62 µM
GI50 (NCI-H522 lung): 2.39 µM
TGI (NCI-H522 lung): 8.65 µM
GI50 (NCI/ADR-RES ovarian): 1.22 µM
TGI (NCI/ADR-RES ovarian): 13.3 µM
GI50 (OVCAR-8 ovarian): 0.798 µM
TGI (OVCAR-8 ovarian): 13.3 µM
GI50 (RXF 393 renal): 1.59 µM
TGI (RXF 393 renal): 3.54 µM
GI50 (SF-539 CNS): 1.92 µM
TGI (SF-539 CNS): 5.48 µM

O=C(Nc1ccc(Br)c(Cl)c1)c1cc(F)ccc1O
GI50 (CCRF-CEM leukemia): 1.43 µM
TGI (CCRF-CEM leukemia): > 15.1 µM
GI50 (HCT-15 colon): 0.888 µM
TGI (HCT-15 colon): 6.66 µM
GI50 (HOP-92 NSCLC): 0.121 µM
TGI (HOP-92 NSCLC): 0.755 µM
GI50 (IGROV1 ovarian): 0.682 µM
TGI (IGROV1 ovarian): > 50 µM
GI50 (MALME-3M melanoma): 0.263 µM
TGI (MALME-3M melanoma): 1.99 µM
GI50 (NCI-H522 lung): 0.238 µM
TGI (NCI-H522 lung): 2.93 µM
GI50 (NCI/ADR-RES ovarian): 1.04 µM
TGI (NCI/ADR-RES ovarian): > 15.6 µM
GI50 (OVCAR-8 ovarian): 1.21 µM
TGI (OVCAR-8 ovarian): > 30.5 µM
GI50 (RXF 393 renal): 1.06 µM
TGI (RXF 393 renal): 3.97 µM
GI50 (SF-539 CNS): 0.771 µM
TGI (SF-539 CNS): 6.32 µM
